In patent US20140073651A1, “BENZAMIDE DERIVATIVES AS P2X7 RECEPTOR ANTAGONISTS” (Actelion Pharmaceuticals Ltd., priority 2011, published 2014):

Target: T1, human recombinant P2X7 receptor (Homo sapiens, UniProt Q99572)
T1 construct: expressed in transfected cells
T1 sequence (Q99572 1-595): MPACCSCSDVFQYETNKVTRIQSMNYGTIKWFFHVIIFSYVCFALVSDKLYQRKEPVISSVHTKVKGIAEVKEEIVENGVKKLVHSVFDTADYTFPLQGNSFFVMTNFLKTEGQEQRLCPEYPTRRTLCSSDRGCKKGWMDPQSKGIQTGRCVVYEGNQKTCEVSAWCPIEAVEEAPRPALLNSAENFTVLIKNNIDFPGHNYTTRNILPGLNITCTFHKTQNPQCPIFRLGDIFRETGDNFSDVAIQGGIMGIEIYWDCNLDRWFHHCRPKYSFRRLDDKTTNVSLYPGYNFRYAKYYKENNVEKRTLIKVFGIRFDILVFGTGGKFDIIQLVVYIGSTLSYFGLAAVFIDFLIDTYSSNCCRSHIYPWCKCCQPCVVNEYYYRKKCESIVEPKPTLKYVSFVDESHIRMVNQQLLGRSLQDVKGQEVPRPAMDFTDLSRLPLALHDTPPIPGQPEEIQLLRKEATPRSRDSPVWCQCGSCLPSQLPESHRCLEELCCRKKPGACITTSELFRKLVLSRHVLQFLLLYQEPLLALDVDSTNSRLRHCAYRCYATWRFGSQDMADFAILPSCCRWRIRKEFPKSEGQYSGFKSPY
Test: YO-PRO assay (YO-PRO-1 uptake) in HEK cells stably expressing P2X7
Assay type: cell-based
Details: HEK-293 cells expressing human recombinant P2X7 receptor; ATP 250 μM, 90 minutes; YO-PRO-1 fluorescence (FLIPR tetra); read-out: IC50 (antagonistic activity with respect to the P2X7 receptor)
Description: Cell line generation was performed in general according to established molecular cloning protocols. Specifically, RNA was extracted from human whole blood using the Qiagen RNeasy kit (Qiagen, CH) according to the manufacturer's instructions. Subsequently cDNA was made (Superscript II, Invitrogen AG, CH) and the human P2X7 gene (genbank ref. BC011913) was amplified with the following primers: [NT] and [NT] The amplified sequence was subsequently ligated into a pcDNA3.1 (+) NotI, NheI digested plasmid. […] Following a 24 h exposure to DNA, cells were trypsinized and re-seeded at low density in the presence of 250 μg Geneticin. Geneticin resistant cells were then selected during two consecutive rounds of cloning by serial limiting dilution with visual inspection. Individual clones were screened for P2X7 expression by applying ATP and recording the resultant uptake of YO-[…]. Specific cell clones were chosen based on RNA and protein expression. HEK cells stably expressing P2X7 were used to screen drugs using the YO-[…] assay. Cells were grown to confluency in adherent culture at 37° C. in a humidified 5% CO2 incubator (split 1/5 every 3-4 days with DMEM, 10% FCS, 1% Penicillin/Streptomycin, 250 μg/ml Geneticin). Adherent cells were detached by incubation with Trypsine (1 ml per 165 cm^2 dish) for 2 minutes, then washed off with 10 ml PBS (without Mg^2+ and Ca^2+), and resuspended in DMEM, 10% FCS, 1% Penicillin/Streptomycin, no Geneticin. 10'000 cells per well (48 hours before the assay) or 25'000 cells per well (Vi-cell XR (Beckman Coulter) (24 hours before the assay) in 50 μl full medium were seeded on 384-well black-wall, clear bottom plates, that were coated before with 10 μl per well Poly-L-Lysine, incubated for 30-60 minutes at 37° C. and washed once with PBS. Medium was removed from cells and 50 μl of assay buffer containing 0.5 μM YO-[…] was added into the wells. Solutions of antagonist compounds were prepared by serial dilutions of a 10 mM DMSO solution of the antagonist into PBS using a BioMek (Beckman Coulter). Each concentration was performed in duplicate. […] During this time period, four time points were taken. Each time point comprised the average of several measurements made within a few seconds. […] The FLIPR tetra was equipped with Molecular Devices Screen Works system control software to define and run experimental protocols. […] For IC50 measurements the maximum intensity is plotted against the concentration of compound to determine IC50 values.

Compound	IC50 [nM]
O=C(NCC1(O)CCCCC1)c1cc([S+]([O-])c2ccccn2)ccc1Cl (racemic) [Example 133, rac-2-Chloro-N-(1-hydroxy-cyclohexylmethyl)-5-(pyridine-2-sulfinyl)-benzamide]	265
O=C(NCC1(O)CCCCC1)c1cc([S+]([O-])c2ccnc(Cl)n2)ccc1Cl (racemic) [Example 136, rac-2-Chloro-5-(2-chloro-pyrimidine-4-sulfinyl)-N-(1-hydroxy-cyclohexylmethyl)-benzamide]	640
COc1nccc([S+]([O-])c2ccc(Cl)c(C(=O)NCC3(O)CCCCC3)c2)n1 (racemic) [Example 140, rac-2-Chloro-N-(1-hydroxy-cyclohexylmethyl)-5-(2-methoxy-pyrimidine-4-sulfinyl)-benzamide]	914
O=C(NCC1(O)CCCCC1)c1cc(C(F)c2cc[nH]c(=O)n2)ccc1Cl (racemic) [Example 152, rac-2-Chloro-5-[fluoro-(2-oxo-1,2-dihydro-pyrimidin-4-yl)-methyl]-N-(1-hydroxy-cyclohexylmethyl)-benzamide]	25
CC(O)(c1ccc(Cl)c(C(=O)NCC2(O)CCCCC2)c1)c1cc[nH]c(=O)n1 (racemic) [Example 156, rac-2-Chloro-N-(1-hydroxy-cyclohexylmethyl)-5-[1-hydroxy-1-(2-oxo-1,2-dihydro-pyrimidin-4-yl)-ethyl]-benzamide]	14
COc1nccc(C(C)(O)c2ccc(Cl)c(C(=O)NCC3(O)CCCCC3)c2)n1 (racemic) [Example 159, rac-2-Chloro-N-(1-hydroxy-cyclohexylmethyl)-5-[1-hydroxy-1-(2-methoxy-pyrimidin-4-yl)-ethyl]-benzamide]	346
CC(O)(c1ccc(Cl)c(C(=O)NCC2(O)CCCCC2)c1)c1cc[nH]c(=O)n1 (single isomer, unassigned) [Example 157, 2-Chloro-N-(1-hydroxy-cyclohexylmethyl)-5-[1-hydroxy-1-(2-oxo-1,2-dihydro-pyrimidin-4-yl)-ethyl]-benzamide]	9
CC(O)(c1ccc(Cl)c(C(=O)NCC2(O)CCCCC2)c1)c1cc[nH]c(=O)n1 (single isomer, unassigned) [Example 158]	66
O=C(NCC1(O)CCCCC1)c1cc(Nc2ccccc2)ccc1Cl [Example 1, 2-Chloro-N-(1-hydroxy-cyclohexylmethyl)-5-phenylamino-benzamide]	111
CN(c1ccccc1)c1ccc(Cl)c(C(=O)NCC2(O)CCCCC2)c1 [Example 2, 2-Chloro-N-(1-hydroxy-cyclohexylmethyl)-5-(methyl-phenyl-amino)-benzamide]	315
COCCN(c1ccccc1)c1ccc(Cl)c(C(=O)NCC2(O)CCCCC2)c1 [Example 3, 2-Chloro-N-(1-hydroxy-cyclohexylmethyl)-5-[(2-methoxy-ethyl)-phenyl-amino]-benzamide]	538
O=C(NCC1(O)CCCCC1)c1cc(Nc2ccccc2F)ccc1Cl [Example 4, 2-Chloro-5-(2-fluoro-phenylamino)-N-(1-hydroxy-cyclohexylmethyl)-benzamide]	103
CN(c1ccc(Cl)c(C(=O)NCC2(O)CCCCC2)c1)c1ccccc1F [Example 5, 2-Chloro-5-[(2-fluoro-phenyl)-methyl-amino]-N-(1-hydroxy-cyclohexylmethyl)-benzamide]	531
O=C(NCC1(O)CCCCC1)c1cc(Nc2ccc(F)cc2F)ccc1Cl [Example 6, 2-Chloro-5-(2,4-difluoro-phenylamino)-N-(1-hydroxy-cyclohexylmethyl)-benzamide]	154
CN(c1ccc(Cl)c(C(=O)NCC2(O)CCCCC2)c1)c1ccc(F)cc1F [Example 7, 2-Chloro-5-[(2,4-difluoro-phenyl)-methyl-amino]-N-(1-hydroxy-cyclohexylmethyl)-benzamide]	876
O=C(NCC1(O)CCCCC1)c1cc(Nc2ccncn2)ccc1Cl [Example 8, 2-Chloro-N-(1-hydroxy-cyclohexylmethyl)-5-(pyrimidin-4-ylamino)-benzamide]	459
CN(c1ccc(Cl)c(C(=O)NCC2(O)CCCCC2)c1)c1ccncn1 [Example 9, 2-Chloro-N-(1-hydroxy-cyclohexylmethyl)-5-(methyl-pyrimidin-4-yl-amino)-benzamide]	481
O=C(NCC1(O)CCCCC1)c1cc(Nc2ccnc(Cl)n2)ccc1Cl [Example 10, 2-Chloro-5-(2-chloro-pyrimidin-4-ylamino)-N-(1-hydroxy-cyclohexylmethyl)-benzamide]	890
CN(c1ccc(Cl)c(C(=O)NCC2(O)CCCCC2)c1)c1ccnc(Cl)n1 [Example 11, 2-Chloro-5-[(2-chloro-pyrimidin-4-yl)-methyl-amino]-N-(1-hydroxy-cyclohexylmethyl)-benzamide]	184
COc1nccc(Nc2ccc(Cl)c(C(=O)NCC3(O)CCCCC3)c2)n1 [Example 12, 2-Chloro-N-(1-hydroxy-cyclohexylmethyl)-5-(2-methoxy-pyrimidin-4-ylamino)-benzamide]	733
COc1nccc(N(C)c2ccc(Cl)c(C(=O)NCC3(O)CCCCC3)c2)n1 [Example 13, 2-Chloro-N-(1-hydroxy-cyclohexylmethyl)-5-[(2-methoxy-pyrimidin-4-yl)-methyl-amino]-benzamide]	200
CNc1nccc(N(C)c2ccc(Cl)c(C(=O)NCC3(O)CCCCC3)c2)n1 [Example 14, 2-Chloro-N-(1-hydroxy-cyclohexylmethyl)-5-[methyl-(2-methylamino-pyrimidin-4-yl)-amino]-benzamide]	127
CN(C)c1nccc(N(C)c2ccc(Cl)c(C(=O)NCC3(O)CCCCC3)c2)n1 [Example 15, 2-Chloro-5-[(2-dimethylamino-pyrimidin-4-yl)-methyl-amino]-N-(1-hydroxy-cyclohexylmethyl)-benzamide]	177
O=C(NCC1(O)CCCCC1)c1cc(Nc2ccnc(O)n2)ccc1Cl [Example 16, 2-Chloro-N-(1-hydroxy-cyclohexylmethyl)-5-(2-hydroxypyrimidin-4-ylamino)-benzamide]	73
CN(c1ccc(Cl)c(C(=O)NCC2(O)CCCCC2)c1)c1cc[nH]c(=O)n1 [Example 17, 2-Chloro-N-(1-hydroxy-cyclohexylmethyl)-5-[methyl-(2-oxo-1,2-dihydro-pyrimidin-4-yl)-amino]-benzamide]	35
CN(c1ccc(Cl)c(C(=O)NCC2(O)CCCCC2)c1)c1ccnc(=O)n1C [Example 18, 2-Chloro-N-(1-hydroxy-cyclohexylmethyl)-5-[methyl-(3-methyl-2-oxo-2,3-dihydro-pyrimidin-4-yl)-amino]-benzamide]	106
CN(c1ccc(Cl)c(C(=O)NCC2(O)CCCCC2)c1)c1ccn(C)c(=O)n1 [Example 19, 2-Chloro-N-(1-hydroxy-cyclohexylmethyl)-5-[methyl-(1-methyl-2-oxo-1,2-dihydro-pyrimidin-4-yl)-amino]-benzamide]	420
CCN(c1ccc(Cl)c(C(=O)NCC2(O)CCCCC2)c1)c1ccnc(Cl)n1 [Example 20, 2-Chloro-5-[(2-chloro-pyrimidin-4-yl)-ethyl-amino]-N-(1-hydroxy-cyclohexylmethyl)-benzamide]	228
CCN(c1ccc(Cl)c(C(=O)NCC2(O)CCCCC2)c1)c1cc[nH]c(=O)n1 [Example 21, 2-Chloro-5-[ethyl-(2-oxo-1,2-dihydro-pyrimidin-4-yl)-amino]-N-(1-hydroxy-cyclohexylmethyl)-benzamide]	17
